From US20120295845A1, “IMIDAZO-PYRAZOLES AS GPR119 INHIBITORS” (Pfizer Inc, priority 2009, published 2012) come the findings set out here.

For this assay, the target named is T1, human GPR119 (Homo sapiens, UniProt Q8TDV5).
T1 construct: host or cells: HEK293-CRE beta-lactamase cells
T1 sequence (Q8TDV5 1-335): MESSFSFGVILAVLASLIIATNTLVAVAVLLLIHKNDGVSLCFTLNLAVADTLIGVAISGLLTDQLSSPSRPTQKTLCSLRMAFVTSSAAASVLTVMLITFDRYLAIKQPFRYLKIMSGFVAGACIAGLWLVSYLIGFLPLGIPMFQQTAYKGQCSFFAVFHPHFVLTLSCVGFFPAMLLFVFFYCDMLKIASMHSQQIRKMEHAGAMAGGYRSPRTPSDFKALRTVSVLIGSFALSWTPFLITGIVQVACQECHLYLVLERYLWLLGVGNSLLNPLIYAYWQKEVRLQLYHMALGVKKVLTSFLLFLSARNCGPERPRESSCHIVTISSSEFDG
Kind of assay: cAMP functional assay (HTRF, hGPR119 HEK-CRE beta-lactamase cells). It counts as cell-based. To be noted: one value per run; for EC50: hGPR119 HEK-CRE beta-lactamase cells, HTRF cAMP, 30 min incubation with IBMX; for Intrinsic Activity* (cAMP) / Emax: percent of maximal activity relative to standard GPR119 agonist (WO2005121121) at 10 μM; for Emax: read-out: Intrinsic Activity* (cAMP). The procedure: GPR119 agonist activity was also determined with a cell-based assay utilizing an
HTRF (Homogeneous Time-Resolved Fluorescence) cAMP detection kit (cAMP dynamic 2 Assay Kit; Cis Bio cat # 62AM4PEC) that measures cAMP levels in the cell. The method is a competitive immunoassay between native cAMP produced by the cells and the cAMP labeled with the dye d2. The tracer binding is visualized by a Mab anti-cAMP labeled with Cryptate. The specific signal (Le. energy transfer) is inversely proportional to the concentration of cAMP in either standard or sample.
Specifically, hGPR119 HEK-CRE beta-lactamase cells (Invitrogen 2.5×10^7/mL; the same cell line used in the beta-lactamase assay described above) are removed from cryopreservation and diluted in growth medium (Dulbecco's modified Eagle medium high glucose (DMEM; Gibco Cat # 11995-065), 1% charcoal dextran treated fetal bovine serum (CD serum; HyClone Cat # SH30068.03), lx MEM Nonessential amino acids (Gibco Cat # 15630-080) and 25 mM HEPES pH 7.0 (Gibco Cat # 15630-080)). The cell concentration was adjusted to 1.5×10^5 cells/mL and 30 mLs of this suspension was added to a T-175 flask and incubated at 37 degrees Celsius in a humidified environment in 5% carbon dioxide. After 16 hours (overnight), the cells were removed from the T-175 flask (by rapping the side of the flask), centrifuged at 800×g and then re-suspended in assay medium (1×HBSS+CaCl2+MgCl2 (Gibco Cat # 14025-092) and 25 mM HEPES pH 7.0 (Gibco Cat # 15630-080)). The cell concentration was adjusted to 6.25×10^5 cells/mL with assay medium and 8 μl of this cell suspension (5000 cells) was added to each well of a white Greiner 384-well, low-volume assay plate (VWR cat # 82051-458).
Varying concentrations of each compound to be tested were diluted in assay buffer containing 3-isobutyl-1-methylxanthin (1BMX; Sigma cat #15879) and added to the assay plate weds in a volume of 2 microL (final BMX concentration was 400 microM and final DMSO concentration was 0.58%). Following 30 minutes incubation at room temperature, 5 microL of labeled d2 cAMP and 5 microL of anti-cAMP antibody (both diluted 1:20 in cell lysis buffer; as described in the manufacturers assay protocol) were added to each well of the assay plate. The plates were then incubated at room temperature and after 60 minutes, changes in the HTRF signal were read with an Envision 2104 multilabel plate reader using excitation of 330 nm and emissions of 615 and 665 nm. Raw data were converted to nM cAMP by interpolation from a cAMP standard curve (as described in the manufacturer's assay protocol) and EC50 determinations were made from an agonist-response curves analyzed with a curve fitting program using a 4-paramter logistic dose response equation.
A general note: TR-FRET usually uses a lanthanide donor and a delayed reading to cut background.

Structures are written as SMILES. Values joined by “and” are separate entries in the source; they are usually repeats but may differ in a detail not shown here. Identical values can stand only once.

On to `Cc1c(O[C@H]2CCN(C(=O)OC3(C)CC3)C[C@H]2F)ncnc1N1CCn2nccc21` (racemic) [Example 3, 1-Methylcyclopropyl (3R,4S)-4-{[6-(2,3-dihydro-1H-imidazo[1,2-b]pyrazol-1-yl)-5-methylpyrimidin-4-yl]oxy}-3-fluoropiperidine-1-carboxylate (racemic)], for which the EC50 (as a rule, the concentration needed to bring the measured effect to its halfway point) was 66 nM and 68 nM; the “Intrinsic Activity* (cAMP)” value was found to be 61%; the Emax was 80%.

As for `Cc1c(O[C@H]2CCN(C(=O)OC(C)C)C[C@H]2F)ncnc1N1CCn2nccc21` (racemic) [Example 4, Isopropyl (3R,4S)-4-{[6-(2,3-dihydro-1H-imidazo[1,2-b]pyrazol-1-yl)-5-methylpyrimidin-4-yl]oxy}-3-fluoropiperidine-1-carboxylate (racemic)], the EC50 is 32 nM and 45 nM; the “Intrinsic Activity* (cAMP)” value was 28%; the Emax came out at 31%.

For the compound `Cc1c(O[C@@H]2CCN(C(=O)OC3(C)CC3)C[C@@H]2F)ncnc1N1CCn2nccc21` (single isomer, unassigned) [Example 5], the EC50 is 38 nM and 36 nM and 34 nM and 49 nM and 47 nM; the “Intrinsic Activity* (cAMP)” value was 68% and 81% and 61%; the Emax is 76%.

As for `Cc1c(O[C@H]2CCN(C(=O)OC3(C)CC3)C[C@H]2F)ncnc1N1CCn2nccc21` (single isomer, unassigned) [Example 6], the EC50 was 40 nM and 140 nM and 48 nM and 88 nM and 82 nM; the “Intrinsic Activity* (cAMP)” value was 82% and 89% and 76% and 83%; the Emax was 86%.

As to `Cc1c(OC2CCN(C(=O)OC(C)C)CC2)ncnc1N1CCn2nccc21` [Example 1, Isopropyl 4-{[6-(2,3-dihydro-1H-imidazo[1,2-b]pyrazol-1-yl)-5-methylpyrimidin-4-yl]oxy}piperidine-1-carboxylate], the “Intrinsic Activity* (cAMP)” value is recorded as 27% and the Emax is 28%.

Regarding `Cc1c(OC2CCN(C(=O)OC3(C)CC3)CC2)ncnc1N1CCn2nccc21` [Example 2, 1-Methylcyclopropyl 4-{[6-(2,3-dihydro-1H-imidazo[1,2-b]pyrazol-1-yl)-5-methylpyrimidin-4-yl]oxy}piperidine-1-carboxylate], the EC50 is 117 nM and 255 nM; the Emax turned out to be 71%.
